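Protocol summary: plate cells (96-well), add compound at 5 concentrations, incubate 48 h, interpolate endpoints linearly. At the TGI there is no net growth.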
How the values were obtained:
Test in all cases: growth of human tumour cells (NCI), 48 h
DLD-1 colon = system: DLD-1 colon
M19-MEL melanoma = system: M19-MEL melanoma
KM20L2 colon = system: KM20L2 colon
SNB-78 CNS = system: SNB-78 CNS
DMS 273 small cell lung = system: DMS 273 small cell lung
RXF-631 renal = system: RXF-631 renal
DMS 114 small cell lung = system: DMS 114 small cell lung
XF 498 CNS = system: XF 498 CNS
HOP-18 NSCLC = system: HOP-18 NSCLC

SMILES | TGI (DLD-1 colon) | TGI (M19-MEL melanoma) | TGI (KM20L2 colon) | TGI (SNB-78 CNS) | TGI (DMS 273 small cell lung) | TGI (RXF-631 renal) | TGI (DMS 114 small cell lung) | TGI (XF 498 CNS) | TGI (HOP-18 NSCLC)
CC(C)N(C(=O)C12C3C4C1C1C2C3C41C(=O)N(C(C)C)C(C)C)C(C)C (stereo unspecified) | > 50 µM | > 50 µM | > 50 µM | > 50 µM | > 50 µM | > 50 µM | > 50 µM | > 50 µM | –
O=c1ccn(/C=C/C(O)C(O)CO)c(=O)[nH]1 (stereo unspecified) | > 100 µM | > 100 µM | > 100 µM | > 100 µM | > 100 µM | > 100 µM | > 100 µM | > 100 µM | > 100 µM
Cc1nnc(N/N=C(/C(=O)C(C#N)c2ccc(Cl)cc2)C(C#N)c2ccc(Cl)cc2)n1N (stereo unspecified) | 42.4 µM | – | 41.2 µM | 51.3 µM | 34 µM | 35.4 µM | 31.4 µM | 46.6 µM | 30 µM
CN(C)C(F)=PC(F)(F)F (stereo unspecified) | > 100 µM | > 100 µM | > 100 µM | > 100 µM | > 100 µM | – | > 100 µM | > 100 µM | > 100 µM
CSc1ccc2c(cc1=O)C(NC(=O)c1ccc(C#N)cc1)CCc1cc(O)c(O)c(O)c1-2 (stereo unspecified) | 70.2 µM | 39 µM | 45.5 µM | > 100 µM | > 100 µM | > 100 µM | 44.9 µM | 89.2 µM | –
O=c1ccc2ccccc2c2ccccc12 | 14.7 µM | 10.7 µM | 3.85 µM | 17.7 µM | 14.3 µM | – | 4.7 µM | – | 14.9 µM
Cn1nc(-c2ccccc2)c(C(=O)/C=C/c2ccc(Cl)cc2)c(N2CCOCC2)c1=O | 13.6 µM | 20.7 µM | 13.8 µM | – | 13.8 µM | 23.2 µM | 9.83 µM | – | 17 µM
Cc1ccc(NC(=O)/C(C#N)=C/c2ccccc2)c(C)c1 | > 100 µM | > 100 µM | > 100 µM | > 100 µM | > 100 µM | – | > 100 µM | > 100 µM | > 100 µM
O=C(CC(=O)c1ccccc1)C(=O)Nc1ccc(Cl)cc1 | > 100 µM | – | > 100 µM | > 100 µM | > 100 µM | – | > 57 µM | > 100 µM | > 100 µM
COC(=O)CCC(NC(=S)N/N=C(\C)c1cnccn1)C(=O)OC (stereo unspecified) | > 100 µM | > 100 µM | > 100 µM | > 100 µM | – | > 100 µM | 54.2 µM | > 100 µM | > 100 µM
CC(C)OC(=O)C1Cc2c([nH]c3ccccc23)C(c2ccccc2)N1 (stereo unspecified) | > 100 µM | > 100 µM | > 100 µM | > 100 µM | > 100 µM | – | > 100 µM | > 100 µM | –
O=C(O)C12CC3CC(CC(F)(C3)C1)C2 | > 100 µM | > 100 µM | > 100 µM | > 100 µM | > 100 µM | – | > 100 µM | > 100 µM | –
CCc1ccccc1NC(=O)CC1NC(=O)CS1 (stereo unspecified) | > 100 µM | > 100 µM | > 100 µM | > 100 µM | > 100 µM | > 100 µM | > 100 µM | > 100 µM | > 100 µM
CN(C)CC(/C(Cc1ccccc1)=N\NC(=S)NN)c1ccccc1 (stereo unspecified) | > 100 µM | > 100 µM | > 100 µM | > 100 µM | > 100 µM | – | > 100 µM | > 100 µM | –
N#CNC1=NC(N)C(c2nc3ccccc3[nH]2)=C(CCCC(=O)Nc2cccc([N+](=O)[O-])c2)N1 (stereo unspecified) | > 100 µM | > 100 µM | > 100 µM | – | > 100 µM | – | > 100 µM | > 100 µM | > 100 µM
COc1cc(-c2cc(=O)c3ccccc3[nH]2)cc(OC)c1OC | > 75 µM | > 75 µM | > 75 µM | > 75 µM | > 75 µM | – | > 75 µM | – | –
CS(=O)(=O)C1(Br)S(=O)(=O)OCCOS1(=O)=O | > 100 µM | > 100 µM | > 100 µM | > 100 µM | > 100 µM | – | > 100 µM | > 100 µM | –
C#CCNC(=O)NC(CCCCNC(=O)OCc1ccccc1)C(=O)OCc1ccccc1 (stereo unspecified) | > 100 µM | 27.6 µM | > 100 µM | 80.1 µM | > 100 µM | – | > 100 µM | 35.7 µM | > 68.2 µM
O=C(N/N=C(\C1=Nc2ccc(Cl)cc2NC1O)C(O)/C=C/c1ccccc1)c1ccncc1 (stereo unspecified) | > 100 µM | > 100 µM | > 100 µM | > 100 µM | > 100 µM | – | > 100 µM | > 100 µM | –
Cc1ccc(C2=Nc3ccccc3SC(c3cccc4c3OCO4)C2)cc1 (stereo unspecified) | 90.3 µM | 36.3 µM | 41.2 µM | – | 40.2 µM | – | – | 29 µM | 38.4 µM
COC(=O)c1ccc(C=C(C#N)C#N)cc1 | 47.9 µM | 75.4 µM | > 100 µM | – | 35.2 µM | > 100 µM | 49.4 µM | – | > 100 µM
Oc1cccnc1/C=N/OCc1ccccc1 | > 100 µM | > 100 µM | > 100 µM | > 100 µM | > 100 µM | – | > 100 µM | > 100 µM | –
C=C1C=CC2(Br)OC3CC(C)(Cl)C(Br)CC13C2(C)C (stereo unspecified) | > 100 µM | 44.9 µM | 49.7 µM | 61.7 µM | > 100 µM | > 100 µM | 32.4 µM | 27.9 µM | –

Reference: PubChem BioAssay (NCI)
